Laboratory results reported in article PMC4959447 (Journal of medicinal chemistry, 2015).
Values joined by “and” are separate entries in the source; they are usually repeats but may differ in a detail not shown here. Identical values can stand only once. Like-named read-outs stand apart in the source and are kept apart here.

Tests used:
leukemia cell lines = assay: NCI-60 five-dose screen, leukemia sub-panel; type: cell-based; conditions: Homo sapiens, read-out: GI50 values in the range
M9-ENL1 cells = assay: M9-ENL1 cell assay; type: cell-based; conditions: M9-ENL1, 24 h
[1] = system: rat 9L-SF gliosarcoma cells; assay: Colony formation assay with 9L-SF cells
[2] = system: panel of 60 human cancer cell lines; assay: NCI-60 five-dose screen, whole panel; type: cell-based
[3] = system: primary AML cell specimens; assay: Primary AML cell assay, specimens taken together; type: cell-based; conditions: Homo sapiens
[4] = system: primary AML cell specimen AML03; assay: Primary AML cell assay; type: cell-based; conditions: Homo sapiens, 24 h

Structure (SMILES): C=C1C(=O)O[C@H]2[C@H]1CC/C(COC(=O)NCCCCCNC(=O)OC/C1=C/CC[C@@]3(C)O[C@H]3[C@H]3OC(=O)C(=C)[C@@H]3CC1)=C\CC[C@@]1(C)O[C@@H]21 [7c, bis-E-(((1aR,7aS,10aS,10bS)-1a-Methyl-8-methylene-9-oxo-1a,2,3,6,7,7a,8,9,10a,10b-decahydrooxireno[2',3':9,10]cyclodeca[1,2-b]furan-5-yl)methyl)pentane-1,5-diyldicarbamate]
- GI50 (leukemia cell lines): 250 to 780 nM

Structure (SMILES): C=C1C(=O)O[C@H]2[C@H]1CC/C(COC(=O)OC/C1=C/CC[C@@]3(C)O[C@H]3[C@H]3OC(=O)C(=C)[C@@H]3CC1)=C\CC[C@@]1(C)O[C@@H]21 [compound 8, bis-E-(((1aR,7aS,10aS,10bS)-1a-Methyl-8-methylene-9-oxo-1a,2,3,6,7,7a,8,9,10a,10b-decahydrooxireno[2',3':9,10]cyclodeca[1,2-b]furan-5-yl)methyl) carbonate]
- EC50 (M9-ENL1 cells): 500 nM
- fold more cytotoxic than DMAPT ([1]; clonogenic survival, 48 h, at a concentration of 10 μM): 1 × 10^6 fold and 1.08 × 10^6 fold
- fold more toxic than compound 7f ([1]; colony formation assay, at 10 μM): 3,564 fold

Structure (SMILES): C=C1C(=O)O[C@H]2[C@H]1CC/C(COC(=O)NCCCCCCCCNC(=O)OC/C1=C/CC[C@@]3(C)O[C@H]3[C@H]3OC(=O)C(=C)[C@@H]3CC1)=C\CC[C@@]1(C)O[C@@H]21 [7f, bis-E-(((1aR,7aS,10aS,10bS)-1a-Methyl-8-methylene-9-oxo-1a,2,3,6,7,7a,8,9,10a,10b-decahydrooxireno[2',3':9,10]cyclodeca[1,2-b]furan-5-yl)methyl)octane-1,8-diyldicarbamate]
- GI50 (leukemia cell lines): 250 to 780 nM
- GI50 ([2]; 60 cell, read-out: GI50 values in the nanomolar range, against most of the solid tumor cell lines in the 60 cell panel): 160 to 999 nM
- GI50 ([2]; read-out: GI50 values, against more than 50% of the cancer cell lines in the panel): < 500 nM

Structure (SMILES): C=C1C(=O)O[C@@H]2[C@H]3O[C@]3(C)CC/C=C(\C)CC[C@@H]12 [compound 1, parthenolide]
- EC50 ([3]; AML01, read-out: EC50 (range)): 2.5 to 8 µM
- EC50 ([3]; read-out: EC50 (range)): 2.5 to 16 µM
- EC50 [4]: 5 µM

Structure (SMILES): C=C1C(=O)O[C@H]2[C@H]1CC/C(COC(=O)NCCCCNC(=O)OC/C1=C/CC[C@@]3(C)O[C@H]3[C@H]3OC(=O)C(=C)[C@@H]3CC1)=C\CC[C@@]1(C)O[C@@H]21 [7b, bis-E-(((1aR,7aS,10aS,10bS)-1a-Methyl-8-methylene-9-oxo-1a,2,3,6,7,7a,8,9,10a,10b-decahydrooxireno[2',3':9,10]cyclodeca[1,2-b]furan-5-yl)methyl)butane-1,4-diyldicarbamate]
- GI50 (leukemia cell lines): 250 to 780 nM

Structure (SMILES): C=C1C(=O)O[C@H]2[C@H]1CC/C(COC(=O)OCCCCCOC(=O)OC/C1=C/CC[C@@]3(C)O[C@H]3[C@H]3OC(=O)C(=C)[C@@H]3CC1)=C\CC[C@@]1(C)O[C@@H]21 [7j, bis-E-(((1aR,7aS,10aS,10bS)-1a-Methyl-8-methylene-9-oxo-1a,2,3,6,7,7a,8,9,10a,10b-decahydrooxireno[2',3':9,10]cyclodeca[1,2-b]furan-5-yl)methyl)pentane-1,5-diyldicarbonate]
- EC50 [4]: 1.2 µM
